Measurements from paper PMC2763043 (ACS chemical biology, 2009).

What was measured:
MDA-kb2 cells = test: Cytotoxicity in MDA-kb2; type: cell-based; conditions: Cell-Titer Glo, 20 hours
AR = conditions: cited from earlier work
AR-LBD = biological target: T1, AR-LBD (Homo sapiens, UniProt P10275); test: Scintillation Proximity Assay, [3H]-DHT displacement from AR-LBD; type: binding; conditions: SPA
T1 sequence (P10275 663-919): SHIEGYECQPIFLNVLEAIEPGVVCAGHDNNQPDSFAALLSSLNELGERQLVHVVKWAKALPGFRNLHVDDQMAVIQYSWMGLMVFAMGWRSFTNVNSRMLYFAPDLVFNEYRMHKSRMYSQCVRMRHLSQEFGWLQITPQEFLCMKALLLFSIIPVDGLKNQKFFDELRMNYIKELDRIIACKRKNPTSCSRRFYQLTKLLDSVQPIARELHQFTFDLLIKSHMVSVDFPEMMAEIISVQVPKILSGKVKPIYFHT

Androgen Receptor (AR) = Androgen Receptor (AR) (Homo sapiens, UniProt P10275); test: AR transcription reporter assay; type: cell-based; conditions: 0.2 nM DHT
Chain of Androgen Receptor (AR) (P10275 whole entry): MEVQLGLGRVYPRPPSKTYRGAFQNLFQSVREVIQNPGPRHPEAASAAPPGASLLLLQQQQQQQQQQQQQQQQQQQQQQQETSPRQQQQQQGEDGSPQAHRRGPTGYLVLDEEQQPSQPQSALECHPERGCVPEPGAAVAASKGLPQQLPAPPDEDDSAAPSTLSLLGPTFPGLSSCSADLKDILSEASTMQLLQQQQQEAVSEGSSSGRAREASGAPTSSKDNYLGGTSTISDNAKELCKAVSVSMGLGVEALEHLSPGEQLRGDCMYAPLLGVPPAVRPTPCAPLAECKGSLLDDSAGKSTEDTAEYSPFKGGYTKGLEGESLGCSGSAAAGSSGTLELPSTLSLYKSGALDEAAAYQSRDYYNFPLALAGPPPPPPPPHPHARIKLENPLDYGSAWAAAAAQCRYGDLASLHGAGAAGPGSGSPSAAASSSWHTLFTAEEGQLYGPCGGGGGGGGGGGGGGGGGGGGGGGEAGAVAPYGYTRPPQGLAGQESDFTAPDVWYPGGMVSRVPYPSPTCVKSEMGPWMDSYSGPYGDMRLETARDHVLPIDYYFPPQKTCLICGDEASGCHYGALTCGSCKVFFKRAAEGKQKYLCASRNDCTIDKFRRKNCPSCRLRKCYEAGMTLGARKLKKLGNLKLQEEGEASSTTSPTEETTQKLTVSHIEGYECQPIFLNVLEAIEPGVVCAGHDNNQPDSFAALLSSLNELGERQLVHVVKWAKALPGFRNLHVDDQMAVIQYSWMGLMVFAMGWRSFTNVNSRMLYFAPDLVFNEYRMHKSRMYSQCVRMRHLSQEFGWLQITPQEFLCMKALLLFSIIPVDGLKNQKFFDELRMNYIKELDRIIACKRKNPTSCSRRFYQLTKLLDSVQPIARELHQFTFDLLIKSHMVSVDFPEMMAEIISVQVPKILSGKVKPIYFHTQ

[1] = PAMPA permeability and membrane retention; conditions: 0.5% DMSO, pH 7.4
FKBP51 = test: Real time rt-PCR of FKBP51, 18S and GAPDH in MDA-kb2; type: cell-based; conditions: 0.2 nM DHT, MDA-kb2, control experiments
in vitro = conditions: PAMPA, pH 7.4

## CC(O)(CS(=O)(=O)c1ccc(F)cc1)C(=O)Nc1ccc(C#N)c(C(F)(F)F)c1 (centres unmarked) [Bicalutamide]
MDA-kb2 cells
  Cytotoxicity (IC50) in MDA-kb2: Non toxic

## O=C(O)c1ccccc1Nc1cccc(C(F)(F)F)c1 [Compound 1, flufenamic acid]
AR
  Block of AR transcription activity: able to block AR transcription activity

## O=C(O)c1ccccc1Nc1ccc(Cc2ccccc2)cc1 [Compound 20]
MDA-kb2 cells
  Cytotoxicity (IC50) in MDA-kb2: Non toxic
AR-LBD
  Binding to the DHT (hormone) binding site of AR-LBD, in words: low micromolar range
Androgen Receptor (AR)
  % inhibition (in brackets), transcriptional inhibition in MDA-kb2: 75%
[1]
  Permeability: 98 ± 31 10^‒6 cm s^‒1
  Retention in membrane: 89%

## C[C@]12CCC(=O)C[C@@H]1CC[C@@H]1[C@@H]2CC[C@]2(C)[C@@H](O)CC[C@@H]12 [DHT, dihydrotestosterone]
FKBP51
  FKBP51 induction: 4–5 fold

## CC(C)(O)C(=O)Nc1ccc([N+](=O)[O-])c(C(F)(F)F)c1 [Hydroxyflutamide]
In vitro
  Papp: 183 ± 29 ×10⁻⁶ cm/s
MDA-kb2 cells
  Cytotoxicity (IC50) in MDA-kb2: Non toxic
[1]
  Retention in membrane: 75%
